Conditions: Liquid, Closed cell (Static) method

c1ccc2sccc2c1 [benzo[b]thiophene]
Conditions | vapor or sublimation pressure [kPa]
434.26 K | 21.3
446.75 K | 30.3
457.64 K | 41.1
465.61 K | 50.8
472.44 K | 60.5
479.15 K | 71.5
484.01 K | 80.5
489.09 K | 90.9
493.8 K | 101.5

CCCCCCCCCCCC [dodecane]
Conditions | vapor or sublimation pressure [kPa]
432.23 K | 20.9
444.86 K | 31
455.87 K | 42.7
462.05 K | 50.8
469.67 K | 62.3
474.19 K | 70.2
479.82 K | 81
484.34 K | 90.8
488.5 K | 100.6

C=CCCCCCCCCCC [1-dodecene]
Conditions | vapor or sublimation pressure [kPa]
430.38 K | 21.7
443.18 K | 33.6
453.99 K | 44
459.86 K | 52.6
464.81 K | 61.6
470.91 K | 70.7
476.45 K | 80.8
480.78 K | 90.2
484.11 K | 100.7

CCCCCCCCO [octan-1-ol]
Conditions | vapor or sublimation pressure [kPa]
417.83 K | 20.5
428.6 K | 30.4
437.35 K | 41.5
443.9 K | 50.5
449.55 K | 60.7
454.52 K | 71
459.23 K | 81
463.21 K | 91.1
466.61 K | 100.3

— the NIST ThermoML archive (doi:10.1016/j.fluid.2011.04.024)
